Measured values as given in US6458951B2, “Pyrazolopyrimidinone cGMP PDE5 inhibitors for the treatment of sexual dysfunction” (Pfizer Inc, priority 1998, dated 2002).

Legend:
cGMP PDE5 = cGMP PDE5 (UniProt O76074); test: Phosphodiesterase (PDE) inhibitory activity, in vitro, cGMP PDE5; format: biochemical, human or rabbit; settings: in vitro activity as inhibitors of cGMP PDE5
Description: In vitro PDE inhibitory activities against cyclic guanosine 3′,5′-monophosphate (cGMP) and cyclic adenosine 3′,5′-monophosphate (cAMP) phosphodiesterases were determined by measurement of their IC50 values (the concentration of compound required for 50% inhibition of enzyme activity).
The required PDE enzymes were isolated from a variety of sources, including human corpus cavernosum, human and rabbit platelets, human cardiac ventricle, human skeletal muscle and bovine retina, essentially by the method of W. J. Thompson and M. M. Appleman (Biochem., 1971, 10, 311). In particular, the cGMP-specific PDE (PDE5) and the cGMP-inhibited cAMP PDE (PDE3) were obtained from human corpus cavernosum tissue, human platelets or rabbit platelets; the cGMP-stimulated PDE (PDE2) was obtained from human corpus cavernosum; the calcium/calmodulin (Ca/CAM)-dependent PDE (PDE1) from human cardiac ventricle; the cAMP-specific PDE (PDE4) from human skeletal muscle; and the photoreceptor PDE (PDE6) from bovine retina.
Assays were performed using a modification of the “batch” method of W. J. Thompson et al. (Biochem., 1979, 18, 5228).

Row | SMILES | melting point [°C] | IC50 (cGMP PDE5) [nM]
1 | CCc1c2nc(-c3cc(S(=O)(=O)N4CCN(CC)CC4)cnc3OCCOC)[nH]c(=O)c2nn1Cc1ccccn1 (hydrate or solvate) [Example 4, 3-Ethyl-5-[5-(4-ethylpiperazin-1-ylsulphonyl)-2-(2-methoxyethoxy)pyridin-3-yl]-2-(Pyridin-2-yl)methyl-2,6-dihydro-7H-pyrazolo[4,3-d]pyrimidin-7-one] | 139 to 140 | 
2 | CCCc1c2nc(-c3cc(S(=O)(=O)N4CCN(CC)CC4)cnc3OCCOCC)[nH]c(=O)c2nn1Cc1ccccn1 [Example 10, 5-[2-(2-Ethoxyethoxy)-5-(4-ethylpiperazin-1-ylsulphonyl)pyridin-3-yl]-3-n-propyl-2-(pyridin-2-yl)methyl-2,6-dihydro-7H-pyrazolo[4,3-d]pyrimidin-7-one] |  | 10.1
3 | CCc1c2nc(-c3cc(S(=O)(=O)N4CCN(CC)CC4)cnc3OCCCOC)[nH]c(=O)c2nn1Cc1ccccn1 [Example 11, 3-Ethyl-5-[5-(4-ethylpiperazin-1-ylsulphonyl)-2-(3-methoxyprop-1-oxy)-pyridin-3-yl]-2-(pyridin-2-yl)methyl-2,6-dihydro-7H-pyrazolo[4,3-d]pyrimidin-7-one] |  | 10
4 | CCc1c2nc(-c3cc(S(=O)(=O)N4CCN(CC)CC4)cnc3O[C@@H]3CCOC3)[nH]c(=O)c2nn1Cc1ccccn1 [Example 18, 3-Ethyl-5-[5-(4-ethylpiperazin-1-ylsulphonyl)-2-(tetrahydrofuran-3(R)-yloxy)pyridin-3-yl]-2-(pyridin-2-yl)methyl-2,6-dihydro-7H-pyrazolo[4,3-d]pyrimidin-7-one] |  | 8.9
5 | CCCc1c2nc(-c3cc(S(=O)(=O)N4CCN(CC)CC4)cnc3OCC)[nH]c(=O)c2nn1Cc1ncccn1 [Example 43b, 5-[2-Ethoxy-5-(4-ethylpiperazin-1-ylsulphonyl)pyridin-3-yl]-3-n-propyl-2-(pyrimidin-2-yl)methyl-2,6-dihydro-7H-pyrazolo[4,3-d]pyrimidin-7-one] |  | 3.6
6 | CCc1nn(Cc2nccn2C)c2c(=O)[nH]c(-c3cc(S(=O)(=O)N4CCN(CC)CC4)cnc3OCCOC)nc12 [Example 46, 3-Ethyl-5-[5-(4-ethylpiperazin-1-ylsulphonyl)-2-(2-methoxyethoxy)pyridin-3-yl]-1-(1-methylimidazol-2-yl)methyl-1,6-dihydro-7H-pyrazolo[4,3-d]pyrimidin-7-one] |  | 8.1
7 | CCCc1nn(Cc2ncccn2)c2c(=O)[nH]c(-c3cc(S(=O)(=O)N4CCN(CC)CC4)cnc3OCCOC)nc12 [Example 48, 5-[5-(4-Ethylpiperazin-1-ylsulphonyl)-2-(2-methoxyethoxy)pyridin-3-yl]-3-n-propyl-1-(pyrimidin-2-yl)methyl-1,6-dihydro-7H-pyrazolo[4,3-d]pyrimidin-7-one] |  | 6.9
8 | CCc1c2nc(-c3cc(S(=O)(=O)N4CCN(CC)CC4)cnc3O[C@H](C)[C@@H](C)OC)[nH]c(=O)c2nn1C [Example 98, 3-Ethyl-5-[5-(4-ethylpiperazin-1-ylsulphonyl)-2-(2-(R)-methoxy-1-(R)-methylpropoxy)pyridin-3-yl]-2-methyl-2,6-dihydro-7H-pyrazolo[4,3-d]pyrimidin-7-one] |  | 7
9 | CCc1c2nc(-c3cc(S(=O)(=O)N4CCN(CC)CC4)cnc3OCc3ccccn3)[nH]c(=O)c2nn1C [Example 99, 3-Ethyl-5-[5-(4-ethylpiperazin-1-ylsulphonyl)-2-(pyridin-2-yl)methoxypyridin-3-yl]-2-methyl-2,6-dihydro-7H-pyrazolo[4,3-d]pyrimidin-7-one] |  | 5.7
10 | CCCc1nn(C)c2c(=O)[nH]c(-c3cc(S(=O)(=O)N4CCN(CC)CC4)cnc3OCc3ccccn3)nc12 [Example 127, 5-{5-(4-Ethylpiperazin-1-ylsulphonyl)-2-[(pyridin-2-yl)methoxy]pyridin-3-yl}-1-methyl-3-n-propyl-1,6-dihydro-7H-pyrazolo[4,3-d]pyrimidin-7-one] |  | 7.3
11 | CCc1c2nc(-c3cc(S(=O)(=O)N4CCN(CC)CC4)cnc3N3CCCC3)[nH]c(=O)c2nn1Cc1ccccn1 [Example 153] |  | 7.2
